These results are taken from article PMC2364878, “Insecticidal Effects of Organotin(IV) Compounds on Plutella Xylostella (L.) Larvae. II. Inhibitory Potencies Against Acetylcholinesterase and Evidence for Synergism in Tests With Bacillus Thuringiensis(BER.) and Malathion” (Metal-Based Drugs, 1994).

In test [1] the test system is T1, acetylcholinesterase (AChE), R-strain DBM larvae.
T1 construct: gene ace1; native, 1,500 g supernatant of whole 4th instar larva homogenate, not purified
Description: Ellman colorimetric assay, […] nm, linear regression. The format is biochemical, Plutella xylostella. Particulars: acetylthiocholine iodide 0.5 mM, DTNB 0.3 mM, 0.1 M phosphate pH 7.0, 6 min; above tested range (10^-3 to 10^-8 M); technical grade 90% a.i.; read-out: I50. Background: DTNB colorimetry detects thiols as they appear.

Test [2] relates to T2, acetylcholinesterase (AChE), S-strain DBM larvae.
T2 construct: gene ace1; native, 1,500 g supernatant of whole 4th instar larva homogenate, not purified
Kind of test: Ellman colorimetric assay, […] nm, linear regression. Conditions: acetylthiocholine iodide 0.5 mM, DTNB 0.3 mM, 0.1 M phosphate pH 7.0, 6 min, read-out: I50. The format is biochemical, Plutella xylostella.

pIC50: −log10 of the molar value. Like-named read-outs stand apart in the source and are kept apart here.

As to `CNC(=O)ON=C(C)SC` [Methomyl], the values for the pIC50 in test [1] and in test [2] (technical grade 90% a.i.) were 2.63 and 3.45, respectively. Regarding `CCOC(=O)CC(SP(=S)(OC)OC)C(=O)OCC` (stereo not drawn) [Malathion], the pIC50 in test [2] (above tested range (10^-3 to 10^-8 M), technical grade 84% a.i.) is 1.48.
